Measurements as given in US12171777B2, “Methods of making a cyclic dinucleotide” (TAKEDA PHARMACEUTICAL COMPANY LIMITED, priority 2016, dated 2024).
Structures can show the parent of a compound that is named as a salt.

Columns and labels:
[1] = Human plasma stability assay; type: in vitro ADME; conditions: elimination rate constant k; heparinized human plasma, 37° C., 0-24 hours
Procedure: The compound was incubated in heparinized human plasma at 37° C. for 0, 1, 2, 4, 8 and 24 hours, and the change in compound concentration was measured by LC/MS/MS method. The elimination rate constant (=k(/h)) was calculated based on the fitted curve assuming the exponential decrease of concentration as follows; concentration at time x=initial concentration*exp(−k*x).

[2] = system: CT-26 mouse tumor cells; test: Anti-tumor effect in CT-26 syngeneic mice model; type: in vivo; conditions: Balb/C mice; intravenous q3dx3; Ex3a 30 mg/kg, Ex14 1.0 mg/kg
Procedure: (§1) Ex14 and Ex3a were tested in syngeneic tumor models in mice. […] See FIG. 8 and FIG. 9 for the anti-tumor effect colon carcinoma CT-26 syngeneic mice model, and FIG. 10 and FIG. 11 for the anti-tumor effect in the […] B16F10 syngeneic mice model.
(§2) 8×10^4 B16F10 and 2×10^5 CT-26 mouse tumor cells were subcutaneously implanted in the flank of female C57BL/6 (B16F10) and Balb/C (CT-26) mice (n=7 per group). Vehicle (1×PBS), compound Ex3a (30 mg/kg) or Ex14 (1.0 mg/kg) were intravenously administered (final volume of 100 μL) to tumor-bearing mice once the tumor volume has reached 100 mm^3 (Day 0). Vehicle, Ex3a or Ex14 were given every 3 days for a total of 3 doses (q3dx3). Tumor and body weight measurements were taken three times per week using vernier calipers and mettler scale, respectively. Tumor volumes were determined by multiplying the square of the width (‘W’), measured along the short axis of the tumor, by one-half the length (‘L’) measured along the […]

[3] = system: B16F10 mouse tumor cells; test: Anti-tumor effect in B16F10 syngeneic mice model; type: in vivo; conditions: C57BL/6 mice; intravenous q3dx3; Ex3a 30 mg/kg, Ex14 1.0 mg/kg
Procedure: as §1, §2

[4] = biological target: WT STING (human wild-type TMEM173 (H232R)) (Homo sapiens (Human), UniProt Q86WV6, H232R); test: Reporter Gene Assay (2): ISRE NanoLuc reporter in STING-transfected 293T cells, with digitonin; type: cell-based; conditions: HEK-293T, 2′,3′-cGAMP (30 μM) = 100%, solvent = 0%, read-out: activity level against WT STING of test compound (30 μM)
Chain of WT STING (human wild-type TMEM173 (H232R)) (Q86WV6 whole entry H232R): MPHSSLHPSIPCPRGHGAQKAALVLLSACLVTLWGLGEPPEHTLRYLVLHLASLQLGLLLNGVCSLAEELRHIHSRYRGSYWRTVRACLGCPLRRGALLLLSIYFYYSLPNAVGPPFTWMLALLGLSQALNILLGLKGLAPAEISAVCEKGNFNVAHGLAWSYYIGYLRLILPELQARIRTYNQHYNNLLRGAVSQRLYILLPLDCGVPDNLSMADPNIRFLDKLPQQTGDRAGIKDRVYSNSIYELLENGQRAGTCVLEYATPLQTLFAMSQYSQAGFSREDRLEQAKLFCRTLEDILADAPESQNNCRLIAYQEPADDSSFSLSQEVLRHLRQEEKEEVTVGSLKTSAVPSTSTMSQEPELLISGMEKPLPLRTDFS

| Human plasma stability [1] | activation at 30 µM [4] | SMILES | anti-tumor effect, CT-26 syngeneic mice model [2] | anti-tumor effect, B16F10 syngeneic mice model [3] |
| --- | --- | --- | --- | --- |
| 0.58 h⁻¹ | – | Nc1ncnc2c1ncn2[C@@H]1O[C@@H]2COP(=O)(O)O[C@@H]3[C@H](O)[C@@H](COP(=O)(S)O[C@H]2[C@H]1F)O[C@H]3n1cc(F)c2c(=O)[nH]cnc21 (stereo partly drawn) [Ex3a, disodium (5R,7R,8R,12aR,14R,15R,15aR,16R)-14-(6-amino-9H-purin-9-yl)-15-fluoro-7-(5-fluoro-4-oxo-3,4-dihydro-7H-pyrrolo[2,3-d]pyrimidin-7-yl)-16-hydroxy-2-sulfidooctahydro-12H-5,8-methanofuro[3,2-1][1,3,6,9,11,2,10]pentaoxadiphosphacyclotetradecin-10-olate 2,10-dioxide] | anti-tumor effects were observed | anti-tumor effects were observed |
| <0.01 h⁻¹ | 107% | Nc1ncnc2c1ncn2[C@@H]1O[C@@H]2COP(=O)(S)O[C@@H]3[C@H](O)[C@@H](COP(=O)(S)O[C@H]2[C@H]1O)O[C@H]3n1cc(F)c2c(=O)[nH]cnc21 (stereo partly drawn) [Example 5, 7-((5R,7R,8R,12aR,14R,15R,15aS,16R)-14-(6-amino-9H-purin-9-yl)-15,16-dihydroxy-2,10-dioxido-2,10-disulfanyloctahydro-12H-5,8-methanofuro[3,2-1][1,3,6,9,11,2,10]pentaoxadiphosphacyclotetradecin-7-yl)-5-fluoro-3,7-dihydro-4H-pyrrolo[2,3-d]pyrimidin-4-one di-triethylamine salt (Optical Isomer)] | – | – |
| <0.01 h⁻¹ | – | Nc1ncnc2c1ncn2[C@@H]1O[C@@H]2COP(=O)(S)O[C@@H]3[C@H](O)[C@@H](COP(=O)(S)O[C@H]2[C@H]1F)O[C@H]3n1cc(F)c2c(=O)[nH]cnc21 (stereo partly drawn) [Example 14, 7-((2R,5R,7R,8R,10R,12aR,14R,15R,15aR,16R)-14-(6-amino-9H-purin-9-yl)-15-fluoro-16-hydroxy-2,10-dioxido-2,10-disulfanyloctahydro-12H-5,8-methanofuro[3,2-1][1,3,6,9,11,2,10]pentaoxadiphosphacyclotetradecin-7-yl)-5-fluoro-3,7-dihydro-4H-pyrrolo[2,3-d]pyrimidin-4-one di sodium salt] | anti-tumor effects were observed | anti-tumor effects were observed |
